According to patent publication US12102672B2, “Immunogenic sequences from a phage tail length tape measure protein, bacteria expressing the same and their use in treating a cancer” (INSTITUT GUSTAVE ROUSSY, priority 2017, dated 2024):

Experiments:
[1] = tested on: MCA-205 sarcoma; experiment: MCA205 sarcoma growth in antibiotic-treated SPF C57BL/6 mice, CTX plus oral gavage with bacteria; assay type: in vivo; conditions: ATB 3 days, CTX 100 mg/kg x3, weekly oral gavages, FIG. 27B
Protocol: (§1) A and C. Experimental setting. […] D-E. Ex vivo recall assays. […] Each dot represents one mouse.
(§2) A-B. Prophylactic vaccinations. […] C-D. Therapeutic settings.
Mice were treated during 3 days with an antibiotic solution (ATB) containing ampicillin (1 mg/ml), streptomycin (5 mg/ml), colistin (1 mg/ml) (Sigma-Aldrich) and vancomycin (0.25 mg/ml) added in the sterile drinking water of mice. Antibiotic activity was confirmed by cultivating fecal pellets resuspended in BHI+15% glycerol at 0.1 g/ml on COS (BD Columbia Agar with 5% Sheep Blood) plates for 48 h at 37° C. in aerobic and anaerobic conditions. In the context of bacterial transplantation experiments, mice received 3 days of ATB before undergoing bacterial transplantation the next day by oral gavage using animal feeding needles.
Syngeneic C57BL/6 mice were implanted with 0.8×10^6 MCA-205 WT sarcoma cells subcutaneously and treated intraperitoneally (i.p.) when tumors reached 20 to 35 mm^2 in size with CTX (100 mg/kg). Depending on the experimental setting, mice were injected once or 3 times at 1-week interval. Tumor size was routinely monitored every 3 days by means of a caliper.
Enterococcus hirae 13144 were originally isolated from spleens of SPF mice treated with CTX in our laboratory.

[2] = tested on: splenic CD8+ T cells; experiment: IFNγ ELISpot recall assay of splenic CD8+ T cells with DCs pulsed with heat-inactivated bacteria or peptides; assay type: cell-based, mice; conditions: for memory Tc1 immune response (IFNγ spots) to BM-DC infected with EH isolates: Example 2, FIG. 10, splenic CD8+ T cells after gavage + CTX, ELISPOT at 24 hrs; for specific TC1 immune responses after restimulation with E. hirae strains loaded onto DC: Example 12, FIG. 27D, prime-boost exposure + CTX
Protocol: FIG. 9. Experimental immunization protocols to elucidate the immunogenicity of EH peptides. […] 5 days after the first oral gavage, mice are treated with CTX. One week post-CTX, CD8+ T cells are isolated from spleen. These CD8+ T cells are incubated with dendritic cells (DCs) pulsed with 20 μg/ml of peptides (during 1 hour) or with heat-inactivated bacteria (during 6 hours). Inactivation of bacteria consists in incubation at 65° C. during 2 hours. After 24 hours of culture, ELIspot of IFNγ is performed.
FIG. 10. Cross-reactivity between the two E. hirae 708 and 13144 species for CTL splenic reactivity. Number of IFNγ spot representing IFNγ-secreting CD8+ T cells after co-culture with DCs pre-incubated with or without heat-inactivated bacteria (708, 13144, EH17 and L. plantarum).
FIG. 13. Peptides from group 7 containing the TMP1 and TMP2 epitopes activate CD8+ T cells from spleen of mice immunized against E. hirae 13144. Number of IFNγ spot, representing IFNγ-secreting CD8+ T cells, after incubation with DCs pulsed with 13 different group of peptide (Table 6). Just group n° 1 (A) and group n° 7 (B) are shown. (C, E) Number of IFNγ spot, representing IFNγ-secreting CD8+ T cells, after incubation with DCs pulsed with 4 peptides belong to group n° 7 (in table 7). (D) Sequence alignment of TMP1 and TMP2 of EH10815 (SEQ ID Nos: 228 and 229 respectively) compared to EH13144 (fragments of SEQ ID NO: 1) at the level of immunogenic peptides. Amino acid sequence […] corresponds to SEQ ID No: 13. Amino acid sequence […] corresponds to SEQ ID No: 217. Amino acid sequence […] corresponds to SEQ ID Nos: 14. Amino acid sequence AlIEFIKGL corresponds to SEQ ID No: 218. (E) In vitro reactivity of splenic CTL in a recall response to TMP1 and TMP2 as well as Group7 after in vivo immunization with other strains of EH.
as §1

[3] = tested on: MCA205 sarcoma; experiment: Prophylactic vaccination with pulsed DCs followed by MCA205 challenge; assay type: in vivo, C57BL/6 mice; conditions: poly I:C-activated BM-DC pulsed with peptides (20 μg/ml) or heat-inactivated bacteria, s.c. twice 10 days apart
Protocol: FIG. 16. Protocol of immunization with DC pulsed with TMP peptides. After DCs differentiation (with GM-CSF and IL-4 during 6 days), we incubated them with poly I:C (10 μg/ml) overnight before the addition of peptide (1 hour) or heat-inactivated bacteria (6 hours). These DCs are injected subcutaneous on right flank at day 0 and 10. […] We constitute 4 groups, one group without DCs, one group with DCs pulsed with 20 μg/ml of irrelevant peptides (gr1) or TMP peptides or 13144 heat-inactivated bacteria. Mean tumor sizes over time (A), each mouse tumor kinetics for each group (B), and the detailed comparison in between groups at the two last time points before sacrifice for MCA205 are shown (C), each dot representing one mouse. MC38 related data are not shown.
FIG. 17. […] Tumor growth of MCA205 in mice vaccinated with DCs pulsed with gr1 peptides, TMP peptides and E. hirae 13144. (A) Mean±SEM of tumor sizes at different kinetics. (B) Tumor growth kinetics for each individual group of 5-10 mice. (C) Tumor sizes and statistical differences at time of sacrifice.
as §2
After DCs differentiation, these DCs were activated with poly I:C (10 μg/ml, Invivogen) overnight before infection with heat-inactivated (2 h at 65° C.) bacterial strains (MOI 10) or pulsed with peptides (20 μg/ml, peptide 2.0). […]

[4] = tested on: MCA205 cells with PSMB4 GSFARFRNI knock-in; experiment: Growth of Psmb4 knock-in MCA205 tumors under CTX +/- E. hirae 13144; assay type: in vivo, mice; conditions: L→F exchange in position 3, versus WT MCA205
[5] = tested on: TMP1-specific CD8+ T cells
[6] = tested on: IFNg producing CD8^+ T (Tc1) cells; conditions: naïve mice; cited from earlier work

For “Enterococcus hirae strain 13144 [Peptide 13144]”, the “restoration of antibiotic-perturbed anticancer effects of CTX (MCA205 growth)” value [1] was “efficient”, the “memory Tc1 immune response (IFNγ spots) to BM-DC infected with EH isolates” value [2] was “could induce memory Tc1 immune responses” and the “specific TC1 immune responses after restimulation with E. hirae strains loaded onto DC” value [2] was “triggered specific TC1 immune responses”. The “protection against MCA205 tumor challenge” value [3] was “reduced tumor growth”, the “anticancer effect on PSMB4 knock-in (GSFARFRNI) MCA205 tumors” value [4] was “drastically blunted the anticancer effects” and the “splenic CD8+ T cells recognizing the TMP1 peptide” value ([5]; day 12 following CTX/E. hirae 13144 regimen, FIG. 27F) was “Up to 1%”. For the same substance, the “enrichment of TMP1-specific CTLs in the TC1 subset harboring CCR9” value ([5]; spleens from naive and tumor bearers, tumor draining lymph nodes) was 3-5 fold.
With “Enterococcus hirae 708 [Peptide 708, reference compound]” the “restoration of antibiotic-perturbed anticancer effects of CTX (MCA205 growth)” value [1] was “reduced anticancer effect”, the “memory Tc1 immune response (IFNγ spots) to BM-DC infected with EH isolates” value [2] was “could induce memory Tc1 immune responses” and the “specific TC1 immune responses after restimulation with E. hirae strains loaded onto DC” value [2] was “failed to do so”. For the same substance, the “TC1 response against TMP1 in mice gavaged with the strain (IFNγ ELISpot)” value ([2]; Example 12, FIG. 27E) was “unable to do so” and the “immunogenic and oncomicrobiotic properties of the isolate” value [6] was “induced IFNg producing CD8^+ T (Tc1) cells”.
